Among the data in ChEMBL document CHEMBL1147587, “Synthesis of 7'-[123I]iodo-D-luciferin for in vivo studies of firefly luciferase gene expression” (Bioorg Med Chem Lett, 2004) are Km values, retold here.

For this experiment, the system named is Lampyridae.

Description: Michaelis-Menten constant for binding affinity towards firefly luciferase

A word on the Km: it is the substrate concentration at which the rate is half of its maximum. With `O=C(O)[C@H]1CSC(c2nc3ccc(O)c(I)c3s2)=N1`, the Km was 4.28 µM.
